Data: patent US5627199A, “6-heterocyclic-4-amino-1,2,2A,3,4,5-hexahydrobenz [CD] indoles” (ELi Lilly and Company, priority 1995, dated 1997)
Counter-ions that a name gives are not always drawn.

Columns and labels:
5-HT1A receptor = target: T1, 5-HT1A receptor (Rattus norvegicus, UniProt P19327); assay: 5-HT1A receptor in vitro binding ([3H]8-OH-DPAT, rat hippocampal membranes); design: species or system male Sprague-Dawley rats; conditions: inhibition of [3H]8-OH-DPAT (1.0 nM) binding by 50%, pH 7.4, 10 min at 37° C.
T1 construct: the brains were rapidly chilled and dissected to obtain the hippocampi; from tissue; host or cells: hippocampal membranes of male Sprague-Dawley rats
T1 sequence (P19327 1-422): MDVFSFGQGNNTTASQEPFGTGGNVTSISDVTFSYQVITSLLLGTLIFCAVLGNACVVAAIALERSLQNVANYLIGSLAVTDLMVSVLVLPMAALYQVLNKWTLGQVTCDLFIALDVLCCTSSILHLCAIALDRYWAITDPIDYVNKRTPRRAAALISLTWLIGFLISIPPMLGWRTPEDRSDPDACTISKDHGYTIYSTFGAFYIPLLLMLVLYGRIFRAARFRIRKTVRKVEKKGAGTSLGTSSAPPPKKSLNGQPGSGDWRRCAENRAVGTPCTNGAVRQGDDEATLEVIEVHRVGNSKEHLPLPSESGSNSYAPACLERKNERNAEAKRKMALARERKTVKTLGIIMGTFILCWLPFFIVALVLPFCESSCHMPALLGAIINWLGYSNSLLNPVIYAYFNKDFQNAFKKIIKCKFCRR
Experimental: The affinities of certain of the compounds of Formula 1 at the central 5-HT1A receptors were determined using a modification of the binding assay described by Taylor et al., J. Pharmacol. Exp. Ther. 236, 118-125 (1986). Membranes for the binding assay were prepared from male Sprague-Dawley rats (150-250 g). The animals were killed by decapitation, and the brains were rapidly chilled and dissected to obtain the hippocampi. Membranes from the hippocampi were either prepared that day, or the hippocampi were stored frozen (-70° C.) until the day of preparation. The membranes were prepared by homogenizing the tissue in 40 volumes of ice-cold Tris-HCl buffer (50 mM, pH 7.4 at 22° C.) using a Techmar Tissumizer (setting 65 for 15 sec), and the homogenate was centrifuged at 39800× g for 10 minutes. The resulting pellet was then resuspended in the same buffer, and the centrifugation and resuspension process was repeated three additional times to wash the membranes. Between the second and third washes the resuspended membranes were incubated for 10 minutes at 37° C. to facilitate the removal of endogenous ligands. The final pellet was resuspended in 67 mM Tris-HCl, pH 7.4, to a concentration of 2 mg of tissue original wet weight/200 μl. This homogenate was stored frozen (-70° C.) until the day of the binding assay. […] The assay tubes were incubated for 10 minutes at 37° C. and the contents were then rapidly filtered through GF/B filters (pretreated with 0.5% polyethylenimine), followed by four 1 ml washes with ice-cold buffer. The radioactivity trapped by the filters was quantitated by liquid scintillation spectrometry, and specific [^3 H]8-OH-DPAT binding to the 5-HT1A sites was defined as the difference between [^3 H]8-OH-DPAT bound in the presence and absence of 10 μM 5-HT.
In Table 1, the first column provides the Example Number of the compound evaluated while the second column provides the amount of test compound (expressed in nanomolar concentration) required to inhibit the binding of [^3 H]8-OH-DPAT by 50% (indicated as IC50).

5-HT1D receptor = 5-HT1D receptor in vitro binding ([3H]5-HT, bovine caudate membranes); conditions: inhibition of [3H]5-HT (1.7-1.9 nM) binding by 50%, 8-OH-DPAT and mesulergine (100 nM each) as masks, pH 7.4, 10 min at 37° C.
Experimental: The affinities of certain of the compounds of Formula 1 at the central 5-HT1D binding sites were determined using a modification of the binding assay described by Heuring and Peroutka, J. Neurosci., 7, 894 (1987). Bovine brains were obtained and the caudate nuclei were dissected out and frozen at -70° C. until the time that the membranes were prepared for the binding assays. At that time the tissues were homogenized in 40 volumes of ice-cold Tris-HCl buffer (50 mM, pH 7.4 at 22° C.) with a Techmar Tissumizer (setting 65 for 15 sec), and the homogenate was centrifuged at 39,800× g for 10 minutes. The resulting pellet was then resuspended in the same buffer, and the centrifugation and resuspension process was repeated three additional times to wash the membranes. Between the second and third washes the resuspended membranes were incubated for 10 minutes at 37° C. to facilitate the removal of endogenous 5-HT. The final pellet was resuspended in the buffer to a concentration of 25 mg of original tissue wet weight/ml for use in the binding assay. […] The assay tubes were incubated for 10 minutes at 37° C. and the contents were then rapidly filtered through GF/B filters (pretreated with 0.5% polyethylenimine), followed by four 1 ml washes with ice-cold buffer. The radioactivity trapped by the filters was quantitated by liquid scintillation spectrometry, and specific [^3 H]5-HT binding to the 5-HT1D sites was defined as the difference between [^3 H]5-HT bound in the presence and absence of 10 μM 5-HT.
In Table 2, the first column provides the Example Number of the compound evaluated while the second column provides the amount of test compound (expressed in nanomolar concentration) required to inhibit the binding of [^3 H]5-HT by 50% (indicated as IC50).

Row | Compound | IC50 (5-HT1A receptor) [nM] | IC50 (5-HT1D receptor) [nM]
1 | CCCN(CCC)[C@H]1Cc2c(-c3ccno3)ccc3c2[C@@H](CN3)C1 [Example 10, (+)(2aS, 4R)-6-(5-isoxazolyl)-4-(di-n-propylamino)-1,2,2a,3,4,5-hexahydrobenz[cd]indole.2 HCl] | 0.73 | 11.2
2 | CCCN(CCC)[C@@H]1Cc2c(-c3nc(-c4ccccc4)no3)ccc3c2[C@H](CN3)C1 [Example 12, (2aR,4S)-6-(3-phenyl-1,2,4-oxadiazol-5-yl)-4-(di-n-propylamino)-1,2,2a,3,4,5-hexahydrobenz[cd]indole] | 105 | –
3 | CCCN(CCC)[C@@H]1Cc2c(-c3ccno3)ccc3c2[C@H](CN3)C1 [Example 11, (-)(2aR,4S)-6-(5-isoxazolyl)-4-(di-n-propylamino)-1,2,2a,3,4,5-hexahydrobenz[cd]indole.2 HCl] | 2.08 | 1380
4 | CCCN(CCC)[C@@H]1Cc2c(-c3ccco3)ccc3c2[C@H](CN3)C1 [Example 13, (-)(2aR,4S)-6-(2-furyl)-4-(di-n-propylamino)-1,2,2a,3,4,5-hexahydrobenz[cd]indole] | 21.1 | 1890
5 | CCCN(CCC)C1Cc2c(-c3ccno3)ccc3c2C(CN3)C1 (racemic) [Example 7, (±)-6-(5-isoxazolyl)-4-(di-n-propylamino)-1,2,2a,3,4,5-hexahydrobenz[cd]indole.2HCl] | 1.95 | 23.6
6 | CCCN(CCC)[C@H]1Cc2c(-c3cccnc3)ccc3c2[C@@H](CN3)C1 [Example 18, (+)(2aS,4R)-6-(3-pyridyl)-4-(di-n-propylamino)-1,2,2a,3,4,5-hexahydrobenz[cd]indole] | 1.92 | 40.3
7 | CCCN(CCC)[C@H]1Cc2c(-c3ccco3)ccc3c2[C@@H](CN3)C1 [Example 14, (+)(2aS,4R)-6-(2-furyl)-4-(di-n-propylamino)-1,2,2a,3,4,5-hexahydrobenz[cd]indole] | 5.3 | 43.1
8 | CCCN(CCC)[C@H]1Cc2c(-c3cc[nH]n3)ccc3c2[C@@H](CN3)C1 [Example 6, (+)(2aS,4R)-6-(3-pyrazolyl)-4-(di-n-propylamino)-1,2,2a,3,4,5-hexahydrobenz[cd]indole.2HCL] | 6.37 | 30
9 | CCCN(CCC)[C@H]1Cc2c(-c3ccon3)ccc3c2[C@@H](CN3)C1 [Example 8, (+)(2aS,4R)-6-(3-isoxazolyl)-4-(di-n-propylamino)-1,2,2a,3,4,5-hexahydrobenz[cd]indole.2 HCl] | 0.91 | 9.12
10 | CCCN(CCC)[C@H]1Cc2c(-c3ccccn3)ccc3c2[C@@H](CN3)C1 [Example 17, (+)(2aS, 4R)-6-(2-pyridyl)-4-(di-n-propylamino)-1,2,2a,3,4,5-hexahydrobenz[cd]indol] | 17.3 | 163
11 | CCCN(CCC)[C@H]1Cc2c(-c3ccoc3)ccc3c2[C@@H](CN3)C1 [Example 15, (+)(2aS,4R)-6-(3-furyl)-4-(di-n-propylamino)-1,2,2a,3,4,5-hexahydrobenz[cd]indole] | 2.74 | 19.4
